Drawing on patent US20250214942A1, “INHIBITORS OF RECEPTOR INTERACTING PROTEIN KINASE I FOR THE TREATMENT OF DISEASE” (Board of Regents, The University of Texas System, priority 2019, published 2025), this text covers IC50 for 23 molecules.

RIPK1, sequence (Q13546 1-327): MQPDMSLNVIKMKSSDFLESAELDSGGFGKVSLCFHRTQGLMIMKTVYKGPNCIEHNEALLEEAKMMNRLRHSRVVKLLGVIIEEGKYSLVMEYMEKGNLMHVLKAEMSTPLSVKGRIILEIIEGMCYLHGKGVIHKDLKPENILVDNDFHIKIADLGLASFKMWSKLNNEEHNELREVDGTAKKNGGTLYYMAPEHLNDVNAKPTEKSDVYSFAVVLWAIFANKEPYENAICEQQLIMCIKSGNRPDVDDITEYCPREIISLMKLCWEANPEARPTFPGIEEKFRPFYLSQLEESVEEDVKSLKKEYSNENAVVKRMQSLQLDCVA

One experiment concerns the target RIPK1 (Homo sapiens (Human), UniProt Q13546). The experiment can be described thus: ADP-Glo kinase assay (RIPK1 activity, conversion of ATP to ADP). The class given is biochemical. Particulars: 5 nM RIPK1, 50 μM ATP, 6 h reaction; footnote symbol (a); read-out: RIPK1 Enzyme Avg IC50. How it is done: In order to measure RIPK1 activity the ADP-Glo kinase assay (Promega, Catalog #V7002) was used to measure the conversion of ATP to ADP. This enzymatic assay was performed in a 384-well white, Optiplate (Perkin Elmer, Catalog #6007299) with assay buffer consisting of 50 mM HEPES pH 7.5 (Gibco, Catalog #15630-080), 50 mM NaCl (Teknova, Catalog #S0252), 30 mM MgCl2 (Ambion, Catalog #AM9530G), 1 mM DTT (Santa Cruz Biotechnology, Catalog #sc-29089), 0.05% BSA (Sigma, Catalog #A3059-50G) and 0.02% CHAPS (Sigma, Catalog #C5070-5G). Stock solutions of the test compounds were prepared in 100% DMSO (Sigma, Catalog #D2650) and serially diluted 1:3 using 100% DMSO. Compounds were additionally diluted 1:40 in assay buffer, and 2 μL/well were transferred to the assay plate. 4 μL/well (final concentration of 5 nM) of RIPK1 protein (SignalChem, Catalog #R07-1IG-05) diluted in assay buffer and added to the assay plate followed by a 10 minute preincutation at rt. 4 μL/well of ATP (Promega, Catalog #V7002) (final concentration of 50 μM) diluted in assay buffer were then added to the assay plate followed by a 6 h reaction time. Final concentrations of RIPK1 and ATP refer to a 10 μL volume. Luminescence was measured using a BioTek Synergy™ NEO plate reader. IC50 values were calculated using a four-parameter logistic curve fit using Genedata Screener software.
With `Cc1cccc(C2CCCN2C(=O)C23CC(N4C(=O)CCC4=O)(C2)C3)c1` (centres unmarked) [Example 25, 1-(3-(2-(m-Tolyl)pyrrolidine-1-carbonyl)bicyclo[1.1.1]pentan-1-yl)pyrrolidine-2,5-dione], the IC50 is > 50000 nM. Consider `Cc1cccc(C2CCCN2C(=O)C23CC(NC(=O)c4ccccc4)(C2)C3)c1` (centres unmarked) [Example 117, N-(3-(2-(m-tolyl)pyrrolidine-1-carbonyl)bicyclo[1.1.1]-pentan-1-yl)benzamide], for which the IC50 is > 50000 nM.

The same experiment, now with this note: 5 nM RIPK1, 50 μM ATP, 6 h reaction; read-out: RIPK1 Enzyme Avg IC50.
`Cc1cccc(C2CCCN2C(=O)C23CC(C2)C3)c1` (centres unmarked) [Example 113, bicyclo[1.1.1]pentan-1-yl(2-(m-tolyl)pyrrolidin-1-yl)methanone]: the IC50 came to 4230 nM. Regarding “1-((3-(5-(3,5-difluorophenyl)-4,5-dihydro-1H-pyrazole-1-carbonyl)bicyclo[1.1.1]-pentan-1-yl)methyl)-1H-pyrazole-3-carbonitrile and 1-((3-(5-(3,5-difluorophenyl)-4,5-dihydro-1H-pyrazole-1-carbonyl)bicyclo[1.1.1]-pentan-1-yl)methyl)-1H-pyrazole-5-carbonitrile [Example 189]”, the IC50 amounted to 27 nM. With `O=C(N1CC(F)CC1c1cccc(F)c1)C12CC(CO)(C1)C2` (centres unmarked) [Example 24, (4-Fluoro-2-(3-fluorophenyl)pyrrolidin-1-yl)(3-(hydroxymethyl)bicyclo[1.1.1]pentan-1-yl)methanone], the IC50 was 38800 nM. The same measure, in the same setting: next, `N#Cc1cncn1CC12CC(C(=O)N3N=CCC3c3cc(F)cc(F)c3)(C1)C2` (centres unmarked) [Example 123, 1-((3-(5-(3,5-difluorophenyl)-4,5-dihydro-1H-pyrazole-1-carbonyl)bicyclo[1.1.1]-pentan-1-yl)methyl)-1H-imidazole-5-carbonitrile]: 501 nM. `N#Cc1cc(OCC23CC(C(=O)NCc4cc(F)cc(F)c4)(C2)C3)ncn1` [Example 104, 3-(((6-cyanopyrimidin-4-yl)oxy)methyl)-N-(3,5-difluorobenzyl)bicyclo-[1.1.1]pentane-1-carboxamide]: the IC50 was found to be 3050 nM.

As for `O=C(N1N=CCC1c1ccccc1)C12CC(O)(C1)C2` (centres unmarked) [Example 45, (3-Hydroxybicyclo[1.1.1]pentan-1-yl)(5-phenyl-4,5-dihydro-1H-pyrazol-1-yl)methanone], the IC50 was found to be 8590 nM. Regarding `O=C(N1N=CCC1c1cc(F)cc(F)c1)C12CC(CN3C(=O)C(F)(F)c4ccccc43)(C1)C2` (centres unmarked) [Example 32, 1-((3-(5-(3,5-Difluorophenyl)-4,5-dihydro-1H-pyrazole-1-carbonyl)-bicyclo[1.1.1]pentan-1-yl)methyl)-3,3-difluoroindolin-2-one], the IC50 is 196 nM. For `CCOC12CC(C(=O)N3CCCC3c3cccc(C)c3)(C1)C2` (centres unmarked) [Example 122, (3-ethoxybicyclo[1.1.1]-pentan-1-yl)(2-(m-tolyl)-pyrrolidin-1-yl)methanone], the IC50 was 998 nM.

As to “(3-((3-cyclopropyl-1H-pyrazol-1-yl)methyl)-bicyclo[1.1.1]pentan-1-yl)(5-(3,5-difluorophenyl)-4,5-dihydro-1H-pyrazol-1-yl)methanone and (3-((5-cyclopropyl-1H-pyrazol-1-yl)methyl)-bicyclo[1.1.1]pentan-1-yl)(5-(3,5-difluorophenyl)-4,5-dihydro-1H-pyrazol-1-yl)methanone [Example 191]”, the IC50 came to 74 nM. With `Cc1cc(C)n(CC23CC(C(=O)N4N=CCC4c4cc(F)cc(F)c4)(C2)C3)n1` (centres unmarked) [Example 75, (5-(3,5-difluorophenyl)-4,5-dihydro-1H-pyrazol-1-yl)(3-((3,5-dimethyl-1H-pyrazol-1-yl)methyl)bicyclo[1.1.1]-pentan-1-yl)methanone], the IC50 stood at 323 nM. In the case of `N#Cc1ccn(CC23CC(C(=O)N4CC(F)CC4c4cccc(F)c4)(C2)C3)c(=O)c1` (centres unmarked) [Example 36, 1-((3-(4-Fluoro-2-(3-fluorophenyl)pyrrolidine-1-carbonyl)bicyclo[1.1.1]pentan-1-yl)methyl)-2-oxo-1,2-dihydropyridine-4-carbonitrile], the IC50 worked out at 19300 nM.

The subject of a further experiment is human monocytic cell line U937. Nature of the experiment: Human U937 cellular necroptosis assay (TNFalpha + z-VAD-FMK, Cell Titer-Glo viability). It counts as cell-based. Particulars: Homo sapiens, U-937, 22 h, U937 cells, 25 ng/mL human TNFalpha + 25 μM z-VAD-FMK, read-out: hU937 Avg IC50. An outline of the steps: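 Readout is CellTiter-Glo 2.0 luminescence after 22 h at 37° C with compound, in cells triggered by human TNFalpha (25 ng/mL) and z-VAD-FMK (25 μM) in phenol red-free RPMI/10% FBS. Values are run-averaged IC50s from a four-parameter logistic curve.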
With `Cc1cc(C#N)cnc1OCC12CC(C(=O)N3N=CCC3c3cc(F)cc(F)c3)(C1)C2` (centres unmarked) [Example 225, 6-((3-(5-(3,5-difluorophenyl)-4,5-dihydro-1H-pyrazole-1-carbonyl)bicyclo[1.1.1]pentan-1-yl)methoxy)-5-methyl-nicotinonitrile], the IC50 turned out to be 92 nM. For the molecule `Cc1c(F)cc(C2CC=NN2C(=O)C23CC(Cn4ncc5cc(C#N)ccc54)(C2)C3)cc1F` (centres unmarked) [Example 203, 1-((3-(5-(3,5-Difluoro-4-methylphenyl)-4,5-dihydro-1H-pyrazole-1-carbonyl)bicyclo[1.1.1]pentan-1-yl)methyl)-1H-indazole-5-carbonitrile], the IC50 stood at 5.5 nM.

On to `Cc1ccc(C2CC=NN2C(=O)C23CC(COc4cnc(C#N)cn4)(C2)C3)cn1` (centres unmarked) [Example 289, 5-((3-(5-(6-methylpyridin-3-yl)-4,5-dihydro-1H-pyrazole-1-carbonyl)bicyclo[1.1.1]-pentan-1-yl)methoxy)pyrazine-2-carbonitrile], for which the IC50 turned out to be 281 nM. For the molecule `N#Cc1ccc2c(cnn2CC23CC(C(=O)N4N=CCC4c4nc(C#N)cs4)(C2)C3)c1` (centres unmarked) [Example 254, 2-(1-(3-((5-cyano-1H-indazol-1-yl)methyl)bicyclo[1.1.1]-pentane-1-carbonyl)-4,5-dihydro-1H-pyrazol-5-yl)-thiazole-4-carbonitrile], the IC50 is 503 nM. With `Cc1ccc(C2CC=NN2C(=O)C23CC(Cn4ncc5cc(C#N)ccc54)(C2)C3)cc1F` (centres unmarked) [Example 239, 1-((3-(5-(3-fluoro-4-methyl-phenyl)-4,5-dihydro-1H-pyrazole-1-carbonyl)bicyclo-[1.1.1]pentan-1-yl)methyl)-1H-indazole-5-carbonitrile], the half-maximal inhibitory concentration (IC50) was 10 nM.

Consider `Cc1cc(F)c(C2CC=NN2C(=O)C23CC(Cn4ncc5cc(C#N)ccc54)(C2)C3)cc1F` (centres unmarked) [Example 236, 1-((3-(5-(2,5-difluoro-4-methylphenyl)-4,5-dihydro-1H-pyrazole-1-carbonyl)-bicyclo[1.1.1]pentan-1-yl)-methyl)-1H-indazole-5-carbonitrile], for which the IC50 amounted to 3.8 nM. On the same count and under the same terms, next, `COc1cnnc(OCC23CC(C(=O)N4N=CCC4c4cc(F)cc(F)c4)(C2)C3)c1` (centres unmarked) [Example 329, (5-(3,5-difluorophenyl)-4,5-dihydro-1H-pyrazol-1-yl)(3-(((5-methoxypyridazin-3-yl)-oxy)methyl)bicyclo[1.1.1]-pentan-1-yl)methanone]: 1290 nM; `N#Cc1cnc(OCC23CC(C(=O)N4N=CCC4c4ncc5ccccn45)(C2)C3)cn1` (centres unmarked) [Example 316, 5-((3-(5-(imidazo[1,5-a]-pyridin-3-yl)-4,5-dihydro-1H-pyrazole-1-carbonyl)bicyclo-[1.1.1]pentan-1-yl)methoxy)-pyrazine-2-carbonitrile]: 694 nM; `Cc1ccc(C2CC=NN2C(=O)C23CC(COc4cnc(C#N)cn4)(C2)C3)cc1` (centres unmarked) [Example 198, 5-((3-(5-(p-Tolyl)-4,5-dihydro-1H-pyrazole-1-carbonyl)bicyclo[1.1.1]pentan-1-yl)methoxy)pyrazine-2-carbonitrile]: 7.4 nM. Take `N#Cc1cnc(OCC23CC(C(=O)N4N=CCC4c4c(F)cccc4F)(C2)C3)cn1` (centres unmarked) [Example 307, 5-((3-(5-(2,6-difluorophenyl)-4,5-dihydro-1H-pyrazole-1-carbonyl)bicyclo[1.1.1]pentan-1-yl)methoxy)pyrazine-2-carbonitrile]: the IC50 worked out at 8.7 nM.
